The values that follow come from patent publication EP3807270B1, “NOVEL HETEROARYL HETEROCYCLYL COMPOUNDS FOR THE TREATMENT OF AUTOIMMUNE DISEASE” (F. Hoffmann-La Roche AG, priority 2018, dated 2019).

The target in data set [1] is T1, hERG channel (Homo sapiens, UniProt Q12809).
T1 construct: expressed in transfected cells; host or cells: CHO (Chinese hamster ovary)
Briefly: hERG channel inhibition assay (patch-clamp, CHO hERG cells). The format is cell-based. The conditions noted are these: for IC50 / IC20: CHO hERG cells, whole-cell patch-clamp; for IC20: human, CHO cells stably expressing hERG; for hERG IC20 / TLR7 IC50 / hERG IC20 / TLR9 IC50 / hERG IC20 / TLR8 IC50: safety ratio; for hERG IC20 / TLR7 IC50: TLR7 IC50 of ER compounds from Table 1; for hERG IC20 / TLR9 IC50: TLR9 IC50 of ER compounds from Table 1. The method, boiled down:
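Whole-cell voltage-clamp on CHO cells stably expressing human hERG, IKhERG evoked at 0.1 Hz. Compound applied at rising concentrations, each held 3-10 min to steady state; current amplitude and kinetics expressed against control taken as 100%.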
Background: hERG is a cardiac potassium channel; its block is linked to QT prolongation.

In data set [2] the target is T2, hTLR9 (Homo sapiens, UniProt Q9NR96).
T2 sequence (Q9NR96 26-1032): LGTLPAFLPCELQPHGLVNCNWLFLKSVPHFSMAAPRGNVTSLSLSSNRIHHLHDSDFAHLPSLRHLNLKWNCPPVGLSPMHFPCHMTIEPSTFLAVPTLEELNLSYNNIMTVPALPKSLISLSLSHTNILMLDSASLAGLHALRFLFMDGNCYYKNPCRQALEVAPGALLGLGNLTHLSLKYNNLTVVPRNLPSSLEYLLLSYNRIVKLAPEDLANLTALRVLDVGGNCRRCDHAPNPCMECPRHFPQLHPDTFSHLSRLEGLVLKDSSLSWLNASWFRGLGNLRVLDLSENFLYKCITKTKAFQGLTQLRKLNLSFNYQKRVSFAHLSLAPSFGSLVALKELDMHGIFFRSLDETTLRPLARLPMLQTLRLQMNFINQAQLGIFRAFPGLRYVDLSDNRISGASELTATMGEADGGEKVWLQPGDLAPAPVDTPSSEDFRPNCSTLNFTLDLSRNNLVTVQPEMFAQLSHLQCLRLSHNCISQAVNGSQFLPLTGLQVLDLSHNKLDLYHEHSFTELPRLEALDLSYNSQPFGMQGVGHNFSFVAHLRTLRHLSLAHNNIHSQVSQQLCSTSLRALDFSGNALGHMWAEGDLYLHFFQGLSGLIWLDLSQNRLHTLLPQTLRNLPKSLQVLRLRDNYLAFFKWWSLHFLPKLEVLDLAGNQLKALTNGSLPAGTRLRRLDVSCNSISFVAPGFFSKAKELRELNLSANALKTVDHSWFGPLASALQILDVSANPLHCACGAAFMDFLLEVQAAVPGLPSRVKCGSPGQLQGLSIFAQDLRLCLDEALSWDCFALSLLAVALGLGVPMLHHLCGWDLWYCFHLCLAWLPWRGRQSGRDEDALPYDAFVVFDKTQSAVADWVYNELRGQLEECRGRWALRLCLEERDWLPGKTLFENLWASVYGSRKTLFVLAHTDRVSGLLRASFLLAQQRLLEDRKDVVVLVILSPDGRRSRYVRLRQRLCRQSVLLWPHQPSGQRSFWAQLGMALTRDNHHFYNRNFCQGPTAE
Briefly: HEK293-Blue-hTLR-9 cells assay (SEAP reporter, ODN2006 stimulation). The note with it: HEK293-Blue-hTLR9 cells, ODN2006, 20 hrs; read-out: HEK/hTLR9 IC50. More on the design: host or cells: HEK293 (HEK-Blue). It is filed as cell-based. The method, boiled down:
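HEK293-Blue-hTLR9 cells (250,000-450,000 cells/mL) in DMEM with 10% FBS were treated with serially diluted compound (1% DMSO final) plus ODN2006 for 20 hrs at 37 °C. Supernatant SEAP activity was measured with QUANTI-Blue substrate for 2 hrs at 37 °C, reading absorbance at 620-655 nm.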

The structures appear in SMILES notation.

T1 sequence (Q12809 whole entry): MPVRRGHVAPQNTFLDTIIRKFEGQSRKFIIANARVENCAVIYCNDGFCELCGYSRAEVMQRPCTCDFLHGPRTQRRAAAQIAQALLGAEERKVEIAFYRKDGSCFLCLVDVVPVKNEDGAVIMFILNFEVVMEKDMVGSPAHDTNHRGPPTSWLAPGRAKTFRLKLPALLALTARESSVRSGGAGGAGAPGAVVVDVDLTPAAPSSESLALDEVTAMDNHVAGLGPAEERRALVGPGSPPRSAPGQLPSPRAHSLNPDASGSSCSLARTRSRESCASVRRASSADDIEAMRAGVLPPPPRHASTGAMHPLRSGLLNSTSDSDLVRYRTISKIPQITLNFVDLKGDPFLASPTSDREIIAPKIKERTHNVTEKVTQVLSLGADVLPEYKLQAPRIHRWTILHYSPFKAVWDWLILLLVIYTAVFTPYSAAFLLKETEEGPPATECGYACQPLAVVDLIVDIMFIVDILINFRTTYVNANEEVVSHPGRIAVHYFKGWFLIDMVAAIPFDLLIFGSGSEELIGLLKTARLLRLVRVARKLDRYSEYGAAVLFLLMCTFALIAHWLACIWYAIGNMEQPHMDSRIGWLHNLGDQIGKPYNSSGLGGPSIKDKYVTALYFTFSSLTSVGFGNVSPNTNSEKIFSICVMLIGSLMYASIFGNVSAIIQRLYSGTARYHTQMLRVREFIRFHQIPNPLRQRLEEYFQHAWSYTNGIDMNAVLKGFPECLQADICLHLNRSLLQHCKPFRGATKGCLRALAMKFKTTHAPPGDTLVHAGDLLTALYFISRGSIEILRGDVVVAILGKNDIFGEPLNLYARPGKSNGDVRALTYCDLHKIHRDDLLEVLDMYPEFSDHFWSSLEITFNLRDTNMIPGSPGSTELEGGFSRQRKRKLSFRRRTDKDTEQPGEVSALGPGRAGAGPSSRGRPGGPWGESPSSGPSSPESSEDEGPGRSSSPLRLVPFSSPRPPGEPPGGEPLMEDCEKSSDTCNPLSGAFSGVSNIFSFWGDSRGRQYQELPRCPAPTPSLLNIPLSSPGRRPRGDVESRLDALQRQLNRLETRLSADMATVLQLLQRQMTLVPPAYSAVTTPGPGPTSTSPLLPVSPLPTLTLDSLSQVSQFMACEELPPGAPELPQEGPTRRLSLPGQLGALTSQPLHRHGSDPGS

For the molecule `C[C@@H]1CN(c2ccc(C#N)c3ncccc23)C[C@H](CN2CCN(c3ccncc3)CC2)O1` [ER-888286, reference compound], in data set [1], the IC50 turned out to be 1300 nM, the IC20 was determined as 348 nM, the “hERG IC20 / TLR7 IC50” value was determined as 0.3 and the “hERG IC20 / TLR9 IC50” value is on record as 0.2.

As to `C[C@@H]1CN(c2ccc(C#N)c3ncccc23)C[C@H](CN2CCN(c3cnc4c(c3)CNC4)CC2)O1` [Example 10, 5-[(2S,6R)-2-[[4-(6,7-dihydro-5H-pyrrolo[3,4-b]pyridin-3-yl)piperazin-1-yl]methyl]-6-methyl-morpholin-4-yl] quinoline-8-carbonitrile], in data set [1], the IC50 was more than 20000 nM, the IC20 was more than 10000 nM, the “hERG IC20 / TLR8 IC50” value is on record as more than 442.5 and the “hERG IC20 / TLR7 IC50” value was more than 289.9. Besides, the “hERG IC20 / TLR9 IC50” value in data set [1] is given as more than 187.3. For the same molecule, the IC50 in data set [2] amounted to 53 nM.

`[2H]c1nc2c(C#N)ccc(N3C[C@H](CN4CCN(c5ccc6c(n5)CN[C@@H]6C)CC4)O[C@H](C)C3)c2nc1[2H]` (single isomer, unassigned) [Example 97]: the IC50 in data set [2] is 110 nM.

As to `[2H]c1nc2c(C#N)ccc(N3C[C@H](CN4CCN(c5ccc6c(n5)CN[C@H]6C)CC4)O[C@H](C)C3)c2nc1[2H]` (single isomer, unassigned) [Example 96], the IC50 in data set [2] stood at 116 nM.

Turning to `[2H]c1ccc2c(N3C[C@H](CN4CCN(c5ccc6c(n5)CN[C@H]6C)CC4)O[C@H](C)C3)ccc(C#N)c2n1` (single isomer, unassigned) [Example 99], the IC50 in data set [2] came out at 69 nM.

As to `[2H]c1nc2c(C#N)ccc(N3C[C@H](CN4CCN(c5cc6c(cn5)[C@@H](C)NCC6)CC4)O[C@H](C)C3)c2nc1[2H]` (single isomer, unassigned) [Example 95], the IC50 in data set [2] is 103 nM.

With `C[C@@H]1CN(c2ccc(C#N)c3nccnc23)C[C@H](CN2CCN(c3cc4c(cn3)CCN[C@H]4C)CC2)O1` (single isomer, unassigned) [Example 88], in data set [2], the IC50 is 73 nM.

Turning to `C[C@@H]1CN(c2ccc(C#N)c3nccnc23)C[C@H](CN2CCN(c3cc4c(cn3)CCN[C@@H]4C)CC2)O1` (single isomer, unassigned) [Example 87], the IC50 in data set [2] stood at 97 nM.

Consider `C[C@@H]1CN(c2ccc(C#N)c3nccnc23)C[C@H](CN2CCN(c3cc4c(cn3)[C@@H](C)NCC4)CC2)O1` (single isomer, unassigned) [Example 86], for which, in data set [2], the IC50 stood at 117 nM.

In the case of `[2H]c1nc2c(C#N)ccc(N3C[C@H](CN4CCN(c5cc6c(cn5)[C@H](C)NCC6)CC4)O[C@H](C)C3)c2nc1[2H]` (single isomer, unassigned) [Example 94], the IC50 in data set [2] came out at 71 nM.

Take `[2H]c1ccc2c(N3C[C@H](CN4CCN(c5ccc6c(n5)CN[C@@H]6C)CC4)O[C@H](C)C3)ccc(C#N)c2n1` (single isomer, unassigned) [Example 98]: in data set [2], the IC50 came to 91 nM.

On to `C[C@@H]1CN(c2ccc(C#N)c3ncccc23)C[C@H](CN2CCN(c3ccc4c(c3)CNCC4)CC2)O1` [Example 9, 5-[(2R,6S)-2-methyl-6-[[4-(1,2,3,4-tetrahydroisoquinolin-7-yl)piperazin-1-yl]methyl]morpholin-4-yl]quinoline-8-carbonitrile], for which, in data set [1], the IC50 was more than 20000 nM, the IC20 was 6160 nM, the “hERG IC20 / TLR8 IC50” value is reported as 410.5 and the “hERG IC20 / TLR7 IC50” value was found to be 148.0. Besides, the “hERG IC20 / TLR9 IC50” value in data set [1] was found to be 80.4. Also, the IC50 in data set [2] was 77 nM.

For orientation: IC20 means the concentration at which the effect reaches the 20% level. Low values mean greater potency, high ones weaker potency.
